Our source for the IC50 values is ChEMBL document CHEMBL1201862, “PubChem BioAssay data set” (2004).

Molecules are shown by their SMILES. Active and inactive are the calls of the source. Cut-off read from the data, not from the text of the source: actives have a measured IC50 and inactives only a lower limit.

For the assay, the target named is Envelope glycoprotein gp160 (Human immunodeficiency virus 1, UniProt Q6QLK5). The experiment in a line: cell-free HIV fusion peptide-binding blockers – biochemical, uHTS, fluorescence dequenching, […] (AID 1986).
Sequence of Envelope glycoprotein gp160 (Q6QLK5 whole entry, the tested form may be a part): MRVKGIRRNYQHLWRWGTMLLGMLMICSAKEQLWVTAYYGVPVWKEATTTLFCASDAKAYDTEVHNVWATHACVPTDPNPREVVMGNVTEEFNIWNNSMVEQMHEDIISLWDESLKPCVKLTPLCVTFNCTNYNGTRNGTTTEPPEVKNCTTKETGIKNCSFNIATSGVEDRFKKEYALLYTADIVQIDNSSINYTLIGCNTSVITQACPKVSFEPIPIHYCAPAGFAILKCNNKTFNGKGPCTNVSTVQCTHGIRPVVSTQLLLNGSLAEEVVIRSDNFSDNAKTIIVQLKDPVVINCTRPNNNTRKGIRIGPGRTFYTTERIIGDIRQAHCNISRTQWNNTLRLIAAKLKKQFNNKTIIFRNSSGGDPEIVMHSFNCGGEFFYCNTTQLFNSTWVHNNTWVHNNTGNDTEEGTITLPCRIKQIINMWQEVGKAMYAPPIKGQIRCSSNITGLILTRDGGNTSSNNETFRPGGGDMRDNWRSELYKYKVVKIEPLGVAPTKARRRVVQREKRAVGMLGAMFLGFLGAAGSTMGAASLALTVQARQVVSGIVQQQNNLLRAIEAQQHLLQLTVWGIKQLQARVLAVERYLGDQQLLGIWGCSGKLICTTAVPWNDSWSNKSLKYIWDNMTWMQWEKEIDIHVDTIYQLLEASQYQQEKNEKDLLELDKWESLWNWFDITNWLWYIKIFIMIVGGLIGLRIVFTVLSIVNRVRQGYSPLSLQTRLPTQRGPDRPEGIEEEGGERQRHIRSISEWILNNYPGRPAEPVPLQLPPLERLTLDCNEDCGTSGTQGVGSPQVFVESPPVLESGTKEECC
Regarding `CCOc1cc(/C=C2/C(=N)N3C(=NC2=O)SN=C3S(C)(=O)=O)ccc1OS(=O)(=O)c1ccccc1`, the 50% inhibitory concentration (IC50) (in general, the point on the concentration scale where inhibition reaches its midpoint) is 12.2 µM (active). The result for `O=C1NC(=S)N(c2ccc(F)cc2)C(=O)/C1=C\c1ccoc1` reads 5.78 µM (active). The result for `O=c1cc(-c2ccccc2Cl)oc2c(NS(=O)(=O)c3cc(Cl)cc(Cl)c3O)ccc(O)c12` reads 9.18 µM (active); that for `O=C(O)c1cc(-c2ccc(/C=C3\NC(=O)N(c4ccc(Cl)cc4)C3=O)o2)ccc1Cl`, 22.6 µM (active).

For `Cc1cc(N2C(=O)C(O)=C(C(=O)c3cc4ccccc4o3)C2c2cccc(Br)c2)no1` (stereo not given), the IC50 was 16.4 µM (active).
